“Also recorded” adds a separate entry of the source.
How the values were obtained:
[1] = tested on: LSC (dsRed+); test: Stromal pretreatment of primary MSC stroma, triple coculture, leukemia cells; format: cell-based, murine; conditions: stroma pretreated three days, LSCs and HSPCs comingled
Method: (§1) In the context of primary MSC stroma (uncolored), both HSPCs (from actin-GFP mice (000329, Jackson Lab)) and LSC (dsRed+) populations were comingled together in a ratio of 2:1 within the same 384format wells. As in the stromal pretreatment screen with OP9 stroma, BRD7116 was added for three days to the stroma prior to the addition of the hematopoietic populations. 5 days after compound addition, wells were imaged in the red and green channels and total cells were counted using MetaXpress software from MDC.
(§2) This experiment was also performed in the context of primary MSC stroma. Both HSPCs and LSC populations were comingled together in the same wells, as a “triple” coculture.

[2] = tested on: HSPCs; test: Stromal pretreatment of primary MSC stroma, triple coculture, HSPCs; format: cell-based, murine; conditions: stroma pretreated three days, LSCs and HSPCs comingled
Method: as §1, §2

[3] = tested on: normal murine HSPCs; test: Triple coculture (LSCs and HSPCs on primary MSCs), normal HSPCs; conditions: for IC50: Mus musculus, read-out: Normal HSPC* IC50
Method: As in the original assay approach, treatment of these triple cocultures began one day after hematopoietic cell plating and was assessed 5 days later.
An in vitro therapeutic index was determined for each compound, a comparative measure of the potential for anti-LSC efficacy relative to the potential for dose-limiting toxicities to normal HSCs (myeloablation), or to normal progenitors (myelosuppression). Specifically, ratios were created using the IC50s for primary murine HSPCs in triple coculture as the numerator, and the IC50s for primary murine leukemia inhibition in triple coculture as the denominator, toward assessing the potential for HSC harm relative to LSC inhibition.

[4] = tested on: CD45.1+ HSPCs; parameters: species or system mice; conditions: mouse, in vivo
Method: Heterotypic cocultures containing dsRed+ LSCs, CD45.1+ HSPCs, and GFP+ MSCs were exposed to compounds for 48 hours, then transplanted en masse post trypsinization with untreated wild-type helper splenocytes (CD45.1+CD45.2+) into lethally irradiated, wildtype recipient animals (CD45.2+). Latency of leukemia onset was compared for mice receiving cocultures treated with compound compared to DMSO control treated cocultures. The engraftment of the normal HSPCs treated and injected along with the leukemia cells was quantified by FACs analysis of the bone marrow of mice alive at the 16 week endpoint across treatments.
As in vivo readouts may better reflect hematopoietic stem cell function compared to in vitro readouts (Purton, L. E., and Scadden, D. T. (2007). Cell Stem Cell 1, 263-270.; Bock, T. A. (1997). Stem Cells 15 Suppl 1, 185-195.), our results were confirmed using murine transplantation studies. […] Compounds that increase disease latency relative to DMSO control are considered active. […] Bone marrow repopulating ability is a functional measure of normal HSPCs, assessed by quantifying long-term engraftment and differentiation patterns in recipient mice (Bock, T. A. (1997). Stem Cells 15 Suppl 1, 185-195.; Nguyen, L. V., Vanner, R., Dirks, P., and Eaves, C. J. (2012). Nat Rev Cancer 12, 133-143.). […]

[5] = tested on: leukemia cells on OP9 cells; test: Coculture pulse treatment experiment; format: cell-based, murine; conditions: 24 hours at Day 1 or Day 4 post LSC plating
Method: (§3) 13,500 GFP+ OP9 cells were plated onto gelatin coated, 96 well black, clear bottom plates (3904, Corning). 24 hours later, 2,000 sorted leukemia cells were plated onto the monolayer. Compounds (5 μM) were added either 1 (early pulse) or 4 (late pulse) days later at the same 5 μM working concentration of main coculture screen. In both cases, compounds were removed after 24 hours of treatment, the wells were washed, and fresh media without compound was added. The plates were imaged and analyzed 6 days after leukemia cell plating. The viability of the stroma was assessed using stromal monolayers grown alone and treated in parallel, with the same readout described in the stromal toxicity screen above.

[6] = tested on: OP9 stromal monolayers; test: Stromal viability in pulse treatment experiment (CellTiter-Glo); format: cell-based, murine; conditions: compared to DMSO control
Method: OP9 or MSCs were plated in white, 384 well plates (3570, Corning) and 24 hours later compounds were added in 8-point dose as described. Three days later the plates were put out to cool to room temperature, the cultures were aspirated, and 50 μl of CellTiterGlo reagent (G7570, Promega) diluted 1:3 in PBS was added to each well. The plates were covered and placed on an orbital shaker for 20 minutes then analyzed using either an LJL Analyst (LJL) or Envision (Perkin Elmer).
as §3

[7] = tested on: primary CD34+ cells from normal human cord blood; test: Human CD34+ CAFC assay, normal cells; conditions: 1.25 μM to 10 μM, 18 hours exposure
Method: Samples were centrifuged over Ficoll-Paque PLUS (GE Heathcare) step gradient (2000×g for 30 min in 50 ml tubes) to obtain mononuclear cells and then CD34^+ cells were selected with immunomagnetic beads (MACS Cell Separation, Miltenyi Biotec, Auburn, Calif.), except in one case, NPM1 mutation, which was CD34^− by flow cytometry and mononuclear cells were used. 50,000 cells were placed into 12.5 cm^2 flasks (Becton Dickinson Labware, Franklin Lakes, N.J.) in co-culture with the MS-5 mouse bone marrow-derived stromal cell line (kindly provided by Dr. Itoh, Dept. of Biology, Niigata University, Japan) and DMSO control and the number of final cobblestones was later read. The number of cells needed to form one cobblestone was then placed in triplicate for each sample with each drug at serial drug dilutions from 10 μM to 0.63 μM as well as with DMSO 0.5% for control purposes and incubated overnight with Iscove's modified Dulbecco's medium (IMDM, in house media preparation laboratory)+20% fetal calf serum (FCS, Atlanta Biologicals, Lawrenceville, Ga.) with glutamine (2 mM/ml, in house media preparation laboratory), monothioglycerol (MTG, 10 nM/ml, Sigma Cell Culture, St. Louis Mo.), c-Kit ligand (20 ng/ml, Amgen, Thousand Oaks, Calif.), Flt ligand (20 ng/ml, Imclone, Bridgewater, N.J.), TPO (20 ng/ml, Amgen) and IL-3 (20 ng/ml, Amgen). […]
The cells were treated with compound or DMSO carrier control at four doses (ranging from 1.25 μM to 10 μM) in triplicate for 18 hours, washed thoroughly, then plated onto human stromal MS-5 monolayers (Itoh, K., Tezuka, H., Sakoda, H., Konno, M., Nagata, K., Uchiyama, T., Uchino, H., and Mori, K. J. (1989). Exp Hematol 17, 145-153.) and maintained in coculture with one subsequent half media change. After 5 weeks (2 weeks for the FLT3-ITD sample (Moore, M. A., Dorn, D. C., Schuring a, J. J., Chung, K. Y., and Morrone, G. (2007). Exp Hematol 35, 105-116.)), cobblestone formation was determined, and dose-response curves against the 7 cell types were generated for each compound.

Structure (SMILES) | leukemia cells on pretreated MSC stroma [1] | numbers of comingled HSPCs on pretreated MSC stroma [2] | IC50 [3] | differentiation patterns of engrafted HSPCs [4] | leukemia cells at Day 6 endpoint after 24 hour pulse [5] | leukemia cells at Day 6 endpoint after 24 hour pulse ([5]; listed as lovastatin) | stromal viability after 24 hour pulse (CellTiter-Glo) [6] | toxicity against normal primary CD34+ cells (human CAFC) [7] | normal HSPCs in triple coculture ([3]; 200 nM lovastatic acid or 1 μM BRD7116, 5 days)
CC1(C)C(C(=O)Nc2ccc(S(=O)(=O)c3ccc(NC(=O)C4C(C)(C)C4(C)C)cc3)cc2)C1(C)C [BRD7116] | selective inhibition of the leukemia cells; also recorded: an inhibition of the leukemia cells was observed | a decrease in the numbers of comingled HSPCs was not observed | 5000 nM |  |  |  |  |  | 
CCC(C)C(=O)OC1CC(C)C=C2C=CC(C)C(CCC(O)CC(O)CC(=O)O)C21 (stereo not shown) [Lovastatic acid] |  |  | 800 nM | normal differentiation patterns | strong inhibition of leukemia cells | near-complete loss of leukemia cells | no effect on stromal viability | neither compound showed toxicity | continued to display healthy, cobblestoned morphologies

Reference: US20130338092A1, “COMPOUNDS AND METHODS FOR TARGETING LEUKEMIC STEM CELLS” (The Broad Institute, Inc., priority 2011, published 2013)
